Columns and labels:
293T cells = assay: In vitro SEAP expression via QuantiBlue assay, DNA nanoparticles; type: cell-based; conditions: 24 hours post-treatment
Protocol: To test the ability of these nanoparticles to express SEAP in vitro, 293T cells were treated with nanoparticles. Each well of a 96 well dish of 293 Ts was treated with 10 μL (approximately 0.25 μg) of each formulation product diluted into a final volume of 200 μL with a 1:1 Optimem:PBS mix. The nontreated wells had 200 μL of 50/50 PBS/OptiMEM. Twenty four hours post-treatment or transfection, conditioned media from each culture was collected. Media was analyzed using the QuantiBlue assay (InvivoGen). 180 μL QuantiBlue reagent was combined with 50 μL of media from wells. Readings were taken after 40 minutes by measuring absorbance at 650 nm as directed by the manufacturer's protocol. For the no treatment Negative Control, 50 μL of media from a well not treated with nanoparticles was added to 180 μL QuantiBlue Reagent. These samples were treated the same way as all other samples in all steps of the assay.
FIG. 11 illustrates in vitro SEAP expression of nanoparticle formulations with modified dendrimers used to treat 293T cells.

[1] = test system: Influenza A virus (PR/8/34); assay: Hemagglutinin Inhibition Assay (HAI) on vaccinated animal sera
Protocol: HAI tests were performed on vaccinated animal sera according to the standard recommended WHO protocol [World Health Organization. […] Sera were treated with receptor destroying enzyme (Denka Seiken Co. Ltd, Tokyo, Japan) at 37° C. overnight then heat inactivated for 30 minutes at 56° C. After cooling down to RT, those serum samples were mixed with 2 volume of 25% suspension of turkey red blood cells (RBC, Rockland Immunochemicals) and incubated at room temperature for 2 hours followed by centrifugation to remove RBC. The treated sera, now considered to be at a 1:10 dilution, were serially diluted and incubated with 4 HA units of inactivated Influenza A virus (PR/8/34, Virusys #IAV210) for 30 minutes at room temperature. An equal volume of 0.5% turkey RBC was added to each well and incubated for 30 minutes at room temperature.

| Structure (SMILES) | in vitro SEAP expression (293T cells) | average HI titer ([1]; week 4, after prime vaccination, 5 μg nanoparticle vaccine, HA mRNA) | average HI titer ([1]; week 5, one week after boost immunization, 5 μg) |
| --- | --- | --- | --- |
| CCCCCCCC/C=C\CCCCCCCC(=O)NCCCN(C)CCCNC(=O)OCC(C)(COC(=O)NCCCN(C)CCCNC(=O)CCCCCCC/C=C\CCCCCCCC)C(=O)OCC(CC)(COC(=O)C(C)(COC(=O)NCCCN(C)CCCNC(=O)CCCCCCC/C=C\CCCCCCCC)COC(=O)NCCCN(C)CCCNC(=O)CCCCCCC/C=C\CCCCCCCC)COC(=O)C(C)(COC(=O)NCCCN(C)CCCNC(=O)CCCCCCC/C=C\CCCCCCCC)COC(=O)NCCCN(C)CCCNC(=O)CCCCCCC/C=C\CCCCCCCC [PE-Oleic] | resulted in SEAP expression | 40 | 192 |
| CCCCCCCCCCCCCCCCC(=O)NCCCN(C)CCCNC(=O)OCC(C)(COC(=O)NCCCN(C)CCCNC(=O)CCCCCCCCCCCCCCCC)C(=O)OCC(CC)(COC(=O)C(C)(COC(=O)NCCCN(C)CCCNC(=O)CCCCCCCCCCCCCCCC)COC(=O)NCCCN(C)CCCNC(=O)CCCCCCCCCCCCCCCC)COC(=O)C(C)(COC(=O)NCCCN(C)CCCNC(=O)CCCCCCCCCCCCCCCC)COC(=O)NCCCN(C)CCCNC(=O)CCCCCCCCCCCCCCCC [PE-Heptadecanoic] | resulted in SEAP expression | – | – |
